Reference: US20150148551A1, “GENISTEIN FOR REDUCING LEVELS OF STORAGE COMPOUNDS IN THE TREATMENT AND/OR PREVENTION OF LYSOSOMAL STORAGE DISEASES (LSDS)” (3G THERAPEUTICS, INC., priority 2012, published 2015)

Columns and labels:
Assay type in all cases: cell-based, human
GBA = experiment: DNA microarray, GBA expression in fibroblasts exposed to genistein; details: for GBA fold change Average: 48 h vs DMSO
Procedure: (§1) The experiments were conducted to characterise the transcriptomic profile of human fibroblast cells exposed to genistein, and in particular to determine the expression of genes encoding lysosomal enzymes involved in metabolism (i.e. synthesis and degradation) of organic substances. The absence or deficiency of these enzymes' activity is responsible for occurrence of various lysosomal storage diseases (LSD) (including MPS). The tested hypothesis assumed that genistein influences the expression of many genes, among which there are genes coding for enzymes required in metabolism of compounds, which are pathologically stored in LSD. The results provide important information regarding genistein action on the molecular level within the range of gene expression modulation by this substance. The experiment was conducted in biological quintuplicates. Human dermal fibroblasts (HDFa) were exposed in vitro for 1, 24 or 48 hours to: 30, 60 or 100 μM of genistein; 0.05% DMSO (K1); or were untreated (control cells) (K2), and total RNA was isolated and analysed.
(§2) Fibroblast cells were grown in Dulbecco (DMEM) medium supplemented with 10% fetal bovine serum (FBS) with the addition of 1% antibiotics and anti-fungal agents at 37° C. in humidified atmosphere of 5% CO2, until the required confluency was obtained.
(§3) To determine the effect of tested compound on the transcriptom of the fibroblast cells, the growth medium was replaced with fresh medium, either non-supplemented (0.05% DMSO), or containing genistein (30, 60 or 100 μM, in 0.05% DMSO). The exposure was done for 1, 24 or 48 hours.
(§4) Total RNA was isolated from fibroblasts using High Pure RNA Isolation Kit according to the protocol and then it was quantitatively evaluated using Quant-It™ RiboGreen® Assay Kit.
(§5) Biotinylated cRNA was prepared using Ambion Total PrepAmp Kit for Illumina arrays.
(§6) Standard hybridization and quantitative image analysis procedures—Illumina hybridization protocol and Illumina scanning protocol, were used.
(§7) Processing of the results was done during data definition, including: background correction (using background subtraction method), normalization (using quantile normalization algorithm with Illumina GenomeStudio software package: gene expression module version 1.9.0) and summarization (using method, which sums the values of signal intensities from a set of probes).

LGMN = experiment: DNA microarray, LGMN expression in fibroblasts exposed to genistein; details: for LGMN fold change Average: 48 h vs DMSO
Procedure: as §1, §2, §3, §4, §5, §6, §7

CTSK = experiment: DNA microarray, CTSK expression in fibroblasts exposed to genistein; details: for CTSK fold change Average: 48 h vs DMSO
Procedure: as §1, §2, §3, §4, §5, §6, §7

GAPDH = experiment: DNA microarray, GAPDH reference gene expression in fibroblasts exposed to genistein
Procedure: as §1, §2, §3, §4, §5, §6, §7

MCOLN1 = experiment: DNA microarray, MCOLN1 expression in fibroblasts exposed to genistein; details: for MCOLN1 fold change Average: 48 h vs DMSO
Procedure: as §1, §2, §3, §4, §5, §6, §7

ACP2 = experiment: DNA microarray, ACP2 expression in fibroblasts exposed to genistein; details: for ACP2 fold change Average: 48 h vs DMSO
Procedure: as §1, §2, §3, §4, §5, §6, §7

XYLT1 = experiment: DNA microarray, XYLT1 expression in fibroblasts exposed to genistein
Procedure: as §1, §2, §3, §4, §5, §6, §7

CTSD = experiment: DNA microarray, CTSD expression in fibroblasts exposed to genistein; details: 30 μM
Procedure: as §1, §2, §3, §4, §5, §6, §7

O=c1c(-c2ccc(O)cc2)coc2cc(O)cc(O)c12 [genistein, 4′,5,7-trihydroxy-3-phenylchromen-4-one]
GBA fold change Average 1h30/1hK1 (GBA; 30 μM, 1 h vs 0.05% DMSO): 0.9138 fold change | GBA fold change Average (GBA; 30 μM): 1.257 fold change | GBA fold change Average 1h60/1hK1 (GBA; 60 μM, 1 h vs 0.05% DMSO): 1.033 fold change | GBA fold change Average (GBA; 60 μM): 1.467 fold change | GBA fold change Average 1h100/1hK1 (GBA; 100 μM, 1 h vs 0.05% DMSO): 0.9469 fold change | GBA fold change Average (GBA; 100 μM): 1.606 fold change | LGMN fold change Average 1h30/1hK1 (LGMN; 30 μM, 1 h vs 0.05% DMSO): 0.9392 fold change | LGMN fold change Average (LGMN; 30 μM): 1.3309 fold change | LGMN fold change Average 1h60/1hK1 (LGMN; 60 μM, 1 h vs 0.05% DMSO): 0.9963 fold change | LGMN fold change Average (LGMN; 60 μM): 1.61 fold change | LGMN fold change Average 1h100/1hK1 (LGMN; 100 μM, 1 h vs 0.05% DMSO): 0.8978 fold change | LGMN fold change Average (LGMN; 100 μM): 1.833 fold change | CTSK fold change Average 1h30/1hK1 (CTSK; 30 μM, 1 h vs 0.05% DMSO): 0.9778 fold change | CTSK fold change Average (CTSK; 30 μM): 1.2621 fold change | CTSK fold change Average 1h60/1hK1 (CTSK; 60 μM, 1 h vs 0.05% DMSO): 1.108 fold change | CTSK fold change Average (CTSK; 60 μM): 1.387 fold change | CTSK fold change Average 1h100/1hK1 (CTSK; 100 μM, 1 h vs 0.05% DMSO): 0.9868 fold change | CTSK fold change Average (CTSK; 100 μM): 1.541 fold change | GAPDH fold change Average 1h30/1hK1 (GAPDH; 30 μM, 1 h vs 0.05% DMSO): 0.9592 fold change | GAPDH fold change Average 24h30/24hK1 (GAPDH; 30 μM, 24 h vs 0.05% DMSO): 0.93 fold change | GAPDH fold change Average 48h30/48hK1 (GAPDH; 30 μM, 48 h vs 0.05% DMSO): 0.9412 fold change | GAPDH fold change Average 1h60/1hK1 (GAPDH; 60 μM, 1 h vs 0.05% DMSO): 0.9817 fold change | GAPDH fold change Average 24h60/24hK1 (GAPDH; 60 μM, 24 h vs 0.05% DMSO): 0.8905 fold change | GAPDH fold change Average 48h60/48hK1 (GAPDH; 60 μM, 48 h vs 0.05% DMSO): 0.8088 fold change | GAPDH fold change Average 1h100/1hK1 (GAPDH; 100 μM, 1 h vs 0.05% DMSO): 0.9385 fold change | GAPDH fold change Average 24h100/24hK1 (GAPDH; 100 μM, 24 h vs 0.05% DMSO): 0.9556 fold change | GAPDH fold change Average 48h100/48hK1 (GAPDH; 100 μM, 48 h vs 0.05% DMSO): 0.8652 fold change | MCOLN1 fold change Average 1h30/1hK1 (MCOLN1; 30 μM, 1 h vs 0.05% DMSO): 1.065 fold change | MCOLN1 fold change Average 1h60/1hK1 (MCOLN1; 60 μM, 1 h vs 0.05% DMSO): 1.038 fold change | MCOLN1 fold change Average (MCOLN1; 60 μM): 1.439 fold change | MCOLN1 fold change Average 1h100/1hK1 (MCOLN1; 100 μM, 1 h vs 0.05% DMSO): 1.013 fold change | MCOLN1 fold change Average (MCOLN1; 100 μM): 1.482 fold change | ACP2 fold change Average 1h30/1hK1 (ACP2; 30 μM, 1 h vs 0.05% DMSO): 1.0116 fold change | ACP2 fold change Average (ACP2; 30 μM): 1.0451 fold change | ACP2 fold change Average 1h60/1hK1 (ACP2; 60 μM, 1 h vs 0.05% DMSO): 0.95 fold change | ACP2 fold change Average (ACP2; 60 μM): 1.063 fold change | ACP2 fold change Average 1h100/1hK1 (ACP2; 100 μM, 1 h vs 0.05% DMSO): 0.9804 fold change | ACP2 fold change Average (ACP2; 100 μM): 1.147 fold change | XYLT1 fold change Average 1h30/1hK1 (XYLT1; 30 μM, 1 h vs 0.05% DMSO): 1.058 fold change | XYLT1 fold change Average 24h30/24hK1 (XYLT1; 30 μM, 24 h vs 0.05% DMSO): 0.8611 fold change | XYLT1 fold change Average 48h30/48hK1 (XYLT1; 30 μM, 48 h vs 0.05% DMSO): 0.9745 fold change | XYLT1 fold change Average 24h60/24hK1 (XYLT1; 60 μM, 24 h vs 0.05% DMSO): 0.6217 fold change | XYLT1 fold change Average 1h100/1hK1 (XYLT1; 100 μM, 1 h vs 0.05% DMSO): 1 fold change | XYLT1 fold change Average 24h100/24hK1 (XYLT1; 100 μM, 24 h vs 0.05% DMSO): 0.6324 fold change | XYLT1 fold change Average 48h100/48hK1 (XYLT1; 100 μM, 48 h vs 0.05% DMSO): 0.921 fold change | CTSD fold change Average 1h30/1hK1 (CTSD; 1 h vs 0.05% DMSO): 0.9734 fold change | CTSD fold change Average (CTSD; 48 h vs DMSO): 1.3322 fold change
